Experimental data reported in PubChem BioAssay AID179 (DTP/NCI, 2004).
Activity calls are given as the source filed them.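 The calls were made as follows: active = compounds giving half or more protection of infected cells from virus-caused growth loss, again on retest; inactive = the rest.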 Where a SMILES comes first, the peptide text is derived from it. Bridges are numbered along the chain shown (N, C = ends). Roman numbers before positions name the chains, in order.

Tested on: CEM cells HIV-1 protection, formazan growth assay
Assay: NCI AIDS Antiviral Assay
Settings: for IC50: measured here: growth of uninfected CEM cells
Summary of the method: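 Screen of anti-HIV-1 activity in human CEM cells using a formazan-based growth measurement at five drug concentrations. Hits with 50% or greater protection were repeated, and confirmation required reproducible complete protection.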

Row | SMILES | EC50 [µM] | IC50 [µM] | outcome
1 | CCOP(=O)(OCC)c1ccc[nH]1 | > 200 | > 200 | 
2 | COC(=O)c1nc(=S)[nH]c(C(=O)OC)c1C(=O)/C=C/c1ccccc1 | > 191 | 120 | 
3 | Cc1ccccc1N=O | > 200 | 9.77 | 
4 | O=C1CSC(c2ccccc2)C1C(=O)c1ccc(NCc2nc3ccccc3[nH]2)cc1 (stereo not drawn) | > 200 | 8.71 | 
5 | Clc1nc(NC2CCCCC2)nc(NC2CCCCC2)n1 |  |  | inactive
6 | COC(=O)CC1CC2(C(=O)OC)c3[nH]c4ccccc4c3CCN2C1=O (stereo not drawn) | > 224 | > 224 | 
7 | CC(C)(C)c1cc2c(OC/C=C/c3ccccc3)c(c1)Cc1cc(C(C#N)(OC/C=C/c3ccccc3)OC/C=C/c3ccccc3)cc(c1OC/C=C\c1ccccc1)Cc1cc(C(C)(C)C)cc(c1OC/C=C/c1ccccc1)Cc1cc(C(C#N)(OC/C=C\c3ccccc3)OC/C=C/c3ccccc3)cc(c1OC/C=C\c1ccccc1)C2 (stereo not drawn) | > 100 | > 100 | 
8 | CCN1c2ccccc2-c2c3c1cc(C)cc3c1ccccc1[n+]2CC |  |  | inactive
9 | O=S(=O)(O)SCC1=NCCN1 | > 200 | > 200 | 
10 | CC(=O)OC12c3ccccc3C1CCCCCC21OCCCO1 (stereo not drawn) | > 200 | > 200 | 
11 | c1ccc(C2=NOCC3(c4ccccc4)OC23)cc1 (stereo not drawn) | > 31.6 | 12 | 
12 | CC(C)N=C1CCCC1C(=S)SSC(=S)C1CCCC1=NC(C)C (stereo not drawn) | > 200 | 10.7 | 
13 | CN(C)/N=N/c1nc[nH]c1C(N)=O | > 74.1 | 4.9 | 
14 | Cn1cc(NC(=O)c2cc(NC(=O)c3cc(NC(=O)/C=C/C(=O)O)cn3C)cn2C)cc1C(=O)NCCC(=N)N | > 100 | 89.1 | 
15 | CC(=O)C(C=NCCN=CC(C(C)=O)C(C)=O)C(C)=O.[Ni] | > 200 | > 200 | 
16 | C#CCN(N=O)C(=O)NCCCCC(NC(C)=O)C(=O)NCc1ccccc1 (stereo not drawn) | > 646 | 56.2 | 
17 | Cc1ccc(S(=O)(=O)N/N=C2\CCCCCCCCCCC2CN(C)C)cc1 (stereo not drawn) | > 200 | 28.2 | 
18 | CC(C)C(NC(=O)C(N)CSSCC(N)C(=O)NC(C(=O)O)C(C)C)C(=O)O (stereo not drawn) (I: H-Cys-Val-OH / II: H-Cys-Val-OH; disulfide I:1-II:1; configuration not given here) |  |  | inactive
19 | O=C(O)[C@H]1[C@@H](C2CCCCC2)O[C@@H](C2CCCCC2)O[C@H]1C(F)(F)F | > 200 | 191 | 
20 | CCO/C=N\c1c(C#N)c(-c2ccc(Cl)cc2)cn1-c1ccc(C)cc1 | > 200 | 25.1 | 
21 | CN1CC2=C(NC(=S)NC2c2ccccc2)/C(=C/c2ccccc2)C1 (stereo not drawn) | 19.1 | 85.1 | 

Row | SMILES | EC50 [µM] | IC50 [µM] | outcome
22 | O=C(c1ccc([N+](=O)[O-])cc1)N1CCCC1 | > 200 | > 200 | 
23 | O=S(=O)(/N=S(/Nc1ccccc1)C(Cl)Cl)c1ccccc1 (stereo not drawn) | > 200 | > 200 | 
24 | O=C1C(Cl)C(c2ccccc2)N1n1cnc2ccccc2c1=O (stereo not drawn) | > 79.4 | > 79.4 | 
25 | CC(=O)ON1C(c2ccc([N+](=O)[O-])cc2)OCC2OC(n3cc(C)c(=O)[nH]c3=O)C[C@H]21 (stereo partly drawn) | > 200 | > 200 | 
26 | C[n+]1cn(-c2ccc([N+](=O)[O-])cn2)c2ccccc21 | > 200 | 170 | 
27 | Cc1c2ccccc2nc(CCl)[n+]1[O-] | > 200 | 3.24 | 
28 | C/C(C=O)=C\c1cccc(F)c1 | > 158 | > 158 | 
29 | CC(=O)NC1C(OC(C)C(=O)NC(C(=O)NC(CCC(=O)NCCCNC2c3ccccc3Nc3cccc([N+](=O)[O-])c32)C(N)=O)C(C)C)C(O)C(CO)OC1(C)OCc1ccccc1 (stereo not drawn) | > 10 | 1.74 | 
30 | NCCCNCCSSCc1ccccc1CSSCCNCCCN |  |  | inactive
31 | CC(C)O/N=C/c1cc(NC(=S)OC(C)C)ccc1Cl | 0.0447 | 22.9 | 
32 | O=C1CCC(c2ccccc2)CCN1 (stereo not drawn) |  |  | inactive
33 | Cc1ccc2c(c1)nc(N)n[n+]2[O-] | > 100 | > 100 | 
34 | C=C1SC(=Nc2cccc(OC)c2)N(c2nc(Cl)nc(Cl)n2)C12CCCCC2 | > 155 | 52.5 | 
35 | N#C/C(=C\n1ccc(=O)[nH]c1=S)C(N)=O | > 200 | > 200 | 
36 | CC(=O)/C(=C/N1CC(=O)NC1=S)C(=O)Nc1ccc([N+](=O)[O-])cc1 | > 200 | 155 | 
37 | CCC1C/C(=N\N=C2CC(C)(C)NC(C)(C)C2)CC(C)(C)N1 (stereo not drawn) | > 200 | > 200 | 
38 | CCOP(=O)(OCC)/C(C#N)=C(\C)c1ccco1 | > 200 | > 200 | 
39 | O=C1c2ccccc2C(=O)C12CCc1ccccc12 |  |  | inactive
40 | COC(=O)c1c2c(cc3c1CC1(Cc4cc5c(c(C(C)=O)c4C1)CCC5)C3)CCC2 (stereo not drawn) | > 6.46 | > 6.46 | 
41 | CCOC(=O)CSc1cc(C)c2c(N)c(C(=O)OCC)sc2n1 | > 72.4 | > 72.4 | 
42 | CCOC(=O)/C(N=Nc1ccc(-n2c(C)nc3ccccc3c2=O)cc1)=C(/C)O | > 200 | 151 | 
